Where two headings read alike, the source gives them in different places.
Legend:
Assay type in all cases: cell-based
MDA-MB-231 = experiment: JFCR-39 cytotoxicity screen
[1] = test system: NCI 60 human cancer cell lines; experiment: NCI-60 screen, means, ranges and selectivity over panels; conditions: for GI50: Homo sapiens
Method: Both NSC745885 and NSC757963 satisfied the pre-determined threshold inhibition criteria of the NCI-60 One-Dose Screening, so they were tested against the panels of 60 cancer cell lines of NCI (NCI-60) and 39 cancer cell lines of JFCR (JFCR-39), each cell line was tested at five small doses of our compounds. Results are expressed as the 50% growth inhibition concentration (GI50), the 50% lethal concentration (LC50) and the total growth inhibition (TGI), compared to the values of untreated control cells.
To characterize the selectivity of NSC745885 and NSC757963 further among the different types of cancer, we determined their selectivity ratios towards each cell line subpanel used in the cytotoxicity experiments. […] The promising activity of this compound is evident from the small mean GI50 values. […] The strongest activity was towards the leukemia subpanel and the least one was towards the colon cancer subpanel. […] The strongest activity was towards the melanoma subpanel and the least one was towards the colon cancer subpanel.
All cell lines were published before.

SF-268 = experiment: NCI-60 cytotoxicity screen
K-562 = experiment: NCI-60 cytotoxicity screen
ACHN = experiment: JFCR-39 cytotoxicity screen
NCI-H226 = experiment: JFCR-39 cytotoxicity screen
MKN28 = experiment: JFCR-39 cytotoxicity screen
SW-620 = experiment: NCI-60 cytotoxicity screen
IGROV1 = experiment: NCI-60 cytotoxicity screen
HT-29 = experiment: JFCR-39 cytotoxicity screen
HL-60(TB) = experiment: NCI-60 cytotoxicity screen
HCT-116 = experiment: JFCR-39 cytotoxicity screen
U251 = experiment: NCI-60 cytotoxicity screen
HT29 = experiment: NCI-60 cytotoxicity screen
DMS273 = experiment: JFCR-39 cytotoxicity screen
HCT-15 = experiment: NCI-60 cytotoxicity screen
SF-295 = experiment: NCI-60 cytotoxicity screen
MALME-3M = experiment: NCI-60 cytotoxicity screen
OVCAR-5 = experiment: NCI-60 cytotoxicity screen
UACC-62 = experiment: NCI-60 cytotoxicity screen
PC-3 = experiment: NCI-60 cytotoxicity screen
SNB-19 = experiment: NCI-60 cytotoxicity screen
786-0 = experiment: NCI-60 cytotoxicity screen
[2] = Homo sapiens, read-out: LC50 (the source's name)
[3] = Homo sapiens, Fig 7, read-out: mean log10 of the GI50 values (converted)
[4] = Homo sapiens, five-dose, read-out: GI50
[5] = Homo sapiens, five-dose, read-out: LC50 (the source's name)

## O=C1c2ccccc2C(=O)c2c1ccc1nsnc21 [NSC745885, anthra[1,2-c][1,2,5]thiadiazole-6,11-dione]
MDA-MB-231
  TGI: 5.5 µM
MDA-MB-231; Homo sapiens
  GI50: 1.4 µM
MDA-MB-231; [2]
  CC50: 63 µM
[1]
  selectivity ratios of the NCI subpanels other than leukemia: less than 3
[1]; Fig 7, read-out: MG-MID of mean log10 GI50 (converted)
  GI50: 2.4 µM
[1]; NCI Breast Cancer, read-out: Mean GI50 of subpanel
  GI50: 1.54 µM
[1]; NCI CNS Cancer, read-out: Mean GI50 of subpanel
  GI50: 1.91 µM
[1]; NCI Colon Cancer, read-out: Mean GI50 of subpanel
  GI50: 7.23 µM
[1]; NCI Leukemia, read-out: Mean GI50 of subpanel
  GI50: 0.966 µM
[1]; NCI Melanoma, read-out: Mean GI50 of subpanel
  GI50: 1.65 µM
[1]; NCI Non-Small Cell Lung Cancer, read-out: Mean GI50 of subpanel
  GI50: 5.37 µM
[1]; NCI Ovarian Cancer, read-out: Mean GI50 of subpanel
  GI50: 2.24 µM
[1]; NCI Prostate Cancer, read-out: Mean GI50 of subpanel
  GI50: 2.45 µM
[1]; NCI Renal Cancer, read-out: Mean GI50 of subpanel
  GI50: 3.65 µM
[1]; all NCI subpanels, read-out: mean GI50 values of the NCI 60 subpanels, range
  GI50: 0.97 to 7.2 µM
[1]; equivalent to MID, read-out: Mean GI50 of all NCI-60 cell line panels
  GI50: 3.23 µM
[1]; five-dose, read-out: NCI-60 GI50 values, range over cell lines
  GI50: 0.16 to 17.4 µM
[1]; NCI Breast Cancer
  Selectivity ratio: 2.1
[1]; NCI CNS Cancer
  Selectivity ratio: 1.69
[1]; NCI Colon Cancer
  Selectivity ratio: 0.45
[1]; NCI Leukemia
  Selectivity ratio: 3.35
[1]; NCI Melanoma
  Selectivity ratio: 1.96
[1]; NCI Non-Small Cell Lung Cancer
  Selectivity ratio: 0.6
[1]; NCI Ovarian Cancer
  Selectivity ratio: 1.44
[1]; NCI Prostate Cancer
  Selectivity ratio: 1.32
[1]; NCI Renal Cancer
  Selectivity ratio: 0.89
SF-268; [3]
  GI50: 2.75 µM
SF-268; [4]
  GI50: 2.17 µM
SF-268; [5]
  CC50: 27.7 µM
SF-268; five-dose
  TGI: 5.77 µM
K-562; Homo sapiens, K562, Fig 7, read-out: mean log10 of the GI50 values (converted)
  GI50: 2.51 µM
K-562; Homo sapiens, K562, five-dose, read-out: GI50
  GI50: 1.92 µM
K-562; Homo sapiens, K562, five-dose, read-out: LC50 (the source's name)
  CC50: 41.2 µM
K-562; five-dose
  TGI: 15.9 µM
ACHN
  TGI: 3.8 µM
ACHN; Homo sapiens
  GI50: 1.9 µM
ACHN; [2]
  CC50: 7.6 µM
NCI-H226
  TGI: 3.4 µM
NCI-H226; Homo sapiens
  GI50: 1.6 µM
NCI-H226; [2]
  CC50: 7.3 µM
MKN28
  TGI: 4.4 µM
MKN28; Homo sapiens, MKN-28
  GI50: 1.8 µM
MKN28; Homo sapiens, MKN-28, read-out: LC50 (the source's name)
  CC50: 13 µM
SW-620; [3]
  GI50: 3.89 µM
SW-620; [4]
  GI50: 1.79 µM
SW-620; [5]
  CC50: 6.84 µM
SW-620; five-dose
  TGI: 3.50 µM
IGROV1; Homo sapiens, IGROV-1, Fig 7, read-out: mean log10 of the GI50 values (converted)
  GI50: 1.38 µM
IGROV1; Homo sapiens, IGROV-1, five-dose, read-out: GI50
  GI50: 1.36 µM
IGROV1; Homo sapiens, IGROV-1, five-dose, read-out: LC50 (the source's name)
  CC50: 6.35 µM
IGROV1; five-dose
  TGI: 2.94 µM
HT-29
  TGI: 39.0 µM
HT-29; Homo sapiens
  GI50: 19 µM
HT-29; [2]
  CC50: 81 µM
HL-60(TB); [3]
  GI50: 0.589 µM
HL-60(TB); [4]
  GI50: 0.16 µM
HL-60(TB); [5]
  CC50: 0.99 µM
HL-60(TB); five-dose
  TGI: 0.39 µM
HCT-116
  TGI: 3.0 µM
HCT-116; Homo sapiens
  GI50: 1.6 µM
HCT-116; [2]
  CC50: 5.8 µM
U251; Homo sapiens, U-251, Fig 7, read-out: mean log10 of the GI50 values (converted)
  GI50: 2.51 µM
U251; Homo sapiens, U-251, five-dose, read-out: GI50
  GI50: 1.61 µM
U251; Homo sapiens, U-251, five-dose, read-out: LC50 (the source's name)
  CC50: 5.44 µM
U251; five-dose
  TGI: 2.96 µM
HT29; Homo sapiens, HT-29, Fig 7, read-out: mean log10 of the GI50 values (converted)
  GI50: 6.03 µM
HT29; Homo sapiens, HT-29, five-dose, read-out: GI50
  GI50: 13.4 µM
HT29; Homo sapiens, HT-29, five-dose, read-out: LC50 (the source's name)
  CC50: > 100 µM
HT29; five-dose
  TGI: 50.4 µM
DMS273
  TGI: 3.8 µM
DMS273; Homo sapiens, DMS-273
  GI50: 2 µM
DMS273; Homo sapiens, DMS-273, read-out: LC50 (the source's name)
  CC50: 7 µM
HCT-15; [3]
  GI50: 2.04 µM
HCT-15; [4]
  GI50: 1.71 µM
HCT-15; [5]
  CC50: 8.12 µM
HCT-15; five-dose
  TGI: 3.72 µM
SF-295; [3]
  GI50: 2.4 µM
SF-295; [4]
  GI50: 1.9 µM
SF-295; [5]
  CC50: 8.56 µM
SF-295; five-dose
  TGI: 4.04 µM
MALME-3M; [3]
  GI50: 2 µM
MALME-3M; [4]
  GI50: 1.66 µM
MALME-3M; [5]
  CC50: 5.96 µM
MALME-3M; five-dose
  TGI: 3.15 µM
OVCAR-5; [3]
  GI50: 2.04 µM
OVCAR-5; [4]
  GI50: 1.91 µM
OVCAR-5; [5]
  CC50: 8.84 µM
OVCAR-5; five-dose
  TGI: 4.11 µM
UACC-62; [3]
  GI50: 1.82 µM
UACC-62; [4]
  GI50: 1.45 µM
UACC-62; [5]
  CC50: 5.79 µM
UACC-62; five-dose
  TGI: 2.90 µM
PC-3; [3]
  GI50: 3.16 µM
PC-3; [4]
  GI50: 3.23 µM
PC-3; [5]
  CC50: > 100 µM
PC-3; five-dose
  TGI: >100 µM
SNB-19; [3]
  GI50: 2.04 µM
SNB-19; [4]
  GI50: 2.28 µM
SNB-19; [5]
  CC50: 26 µM
SNB-19; five-dose
  TGI: 5.82 µM
786-0; 786–0, five-dose
  TGI: 19.3 µM
786-0; Homo sapiens, 786-0, Fig 7, read-out: mean log10 of the GI50 values (converted)
  GI50: 4.9 µM
786-0; Homo sapiens, 786–0, five-dose, read-out: GI50
  GI50: 6.17 µM
786-0; Homo sapiens, 786–0, five-dose, read-out: LC50 (the source's name)
  CC50: 50.4 µM
